Counter-ions that a name gives are not always drawn.
Key:
[1] = Plasma pharmacokinetics of irinotecan, SN-38, SN-38G and APC (HPLC, noncompartmental); conditions: for change of AUC when irinotecan administered immediately after epirubicin: Course 1 vs Course 2, paired t-test; for AUC in Course 1 compared to Course 2, higher by: second patient with elevated bilirubin (1.5 times ULN), irinotecan 80 mg m^−2; for SN-38G AUCt: mean ±s.d., dose standardised to 100 mg irinotecan
Method: (§1) Atropine was administered if diarrhoea, abdominal cramping or other symptoms of early cholinergic syndrome occurred within 1 h of receiving irinotecan. […] Dexamethasone and a 5-HT3 antagonist were administered to all patients as standard premedications unless contraindicated.
(§2) Samples were centrifuged immediately at room temperature, and plasma was separated and stored in aliquots at −20°C until analysis.
Irinotecan, SN-38 and APC concentrations were determined using a high-performance liquid chromatography assay. […] The fluorescence detector was operated at an excitation wavelength of 372 nm, irinotecan and APC were monitored at an emission wavelength of 425 nm, while SN-38 and the internal standard were monitored at 535 nm. SN-38 glucuronide (SN-38G) concentrations were estimated as increases in SN-38 concentrations after incubation of plasma samples with β-glucuronidase.
(§3) Pharmacokinetic parameters were determined by noncompartmental methods using WinNonlin (Version 3.0, Pharsight Corp., Mountain View, CA, USA). […] Pharmacokinetic parameters were compared using the paired t-test. A probability of P<0.05 was considered significant. The program S-PLUS for Windows (Version 6) (Insightful Corp., Seattle, WA, USA) was used for statistical analysis.

[2] = clinical; conditions: for half-life: t1/2 (elimination half-life); for half-life / clearance: mean ±s.d.; for clearance: plasma, intravenous, CL (total body clearance)
Method: as §1, §2
Samples were added to C8 solid-phase extraction tubes and extracts were dried on an evaporator. […] The fluorescence detector was set at excitation 480 nm and emission 560 nm.
as §3

[3] = cited from earlier work; for AUC when given together with paclitaxel: attributed to vehicle Cremophor EL, ref Yamamoto et al, 1999; for AUC when given together with carboplatin: ref Okamoto et al, 1998
[4] = tested on: patients with advanced solid tumours; conditions: triple combination, Day 1 every 3 weeks; normal total serum bilirubin
Method: as §1

[5] = set-up: method as in Vanhoefer et al, 2001; conditions: single-agent, weekly or every-3-week regimen; ref Vanhoefer et al, 2001; cited from earlier work
[6] = human, plasma, intravenous, 100 mg

## CCc1c2c(nc3ccc(OC(=O)N4CCC(NCCCCC(=O)O)CC4)cc13)-c1cc3c(c(=O)n1C2)COC(=O)[C@]3(O)CC [APC]
[1]
  change of AUC when irinotecan administered immediately after epirubicin: increased significantly
  AUC in Course 1 compared to Course 2, higher by: > 60%
[1]; human, in vivo, 100 mg
  APC AUCt: 725 ± 460 ng·h/mL

## COc1cccc2c1C(=O)c1c(O)c3c(c(O)c1C2=O)C[C@@](O)([C@@H](O)CO)C[C@@H]3O[C@H]1C[C@H](N)[C@@H](O)[C@H](C)O1 [Epi-ol, epirubicinol]
[2]; human, in vivo, 100 mg
  Epi-ol AUCt: 788 ± 482 ng·h/mL

## CCc1c2c(nc3ccc(O[C@@H]4O[C@H](C(=O)O)[C@@H](O)[C@H](O)[C@H]4O)cc13)-c1cc3c(c(=O)n1C2)COC(=O)[C@]3(O)CC [SN-38G, SN-38 glucuronide]
[1]
  change of AUC when irinotecan administered immediately after epirubicin: increased significantly
  AUC in Course 1 compared to Course 2, higher by: > 60%
[1]; Irinotecan → epirubicin (Course 2)
  SN-38G AUCt: 378 ± 223 ng·h/mL
[1]; Irinotecan+epirubicin (Course 1)
  SN-38G AUCt: 558 ± 480 ng·h/mL

## CCc1c2c(nc3ccc(O)cc13)-c1cc3c(c(=O)n1C2)COC(=O)[C@]3(O)CC [SN-38]
[1]; human, in vivo
  SN-38 AUCt: 102 ± 54 ng·h/mL
[1]; human, in vivo, 100 mg
  SN-38 AUCt: 78 ± 36 ng·h/mL
[3]
  AUC when given together with paclitaxel: increased
  AUC when given together with carboplatin: lower
[3]; ref Dunphy et al, 2001
  AUC when irinotecan is coadministered with doxorubicin: not increased

## COc1cccc2c1C(=O)c1c(O)c3c(c(O)c1C2=O)C[C@@](O)(C(=O)CO)C[C@@H]3O[C@H]1C[C@H](N)[C@@H](O)[C@H](C)O1 [epirubicin]
[2]; human, in vivo
  Vd (apparent volume of distribution): 2563 ± 1122 L
[2]; human, in vivo, 100 mg
  AUC(0-inf): 910 ± 368 ng·h/mL
  AUC(0-t): 723 ± 296 ng·h/mL
[2]; human, in vivo, Vd (apparent volume of distribution)
  Vd: 3480 ± 1940 L
[2]; human, in vivo, Irinotecan → epirubicin (Course 2)
  half-life: 16 ± 7.8 h
[2]; human, in vivo, Irinotecan+epirubicin (Course 1)
  half-life: 23.1 ± 10.8 h
[2]; human, Irinotecan → epirubicin (Course 2)
  clearance: 2080 mL/min
[2]; human, Irinotecan+epirubicin (Course 1)
  clearance: 1830 mL/min
[2]; in vivo
  effect of sequence of drug administration on pharmacokinetic parameters: not affected by the sequence of drug administration

## CCc1c2c(nc3ccc(OC(=O)N4CCC(N5CCCCC5)CC4)cc13)-c1cc3c(c(=O)n1C2)COC(=O)[C@]3(O)CC [irinotecan, Irinotecan hydrochloride]
[1]; [6]
  AUC(0-inf): 2960 ± 1020 ng·h/mL
  AUC(0-t): 2870 ± 916 ng·h/mL
[4]
  recommended phase II dose (MTD): 110 mg m^−2
[5]
  frequency of grade 3/4 late diarrhoea: > 20%
[3]
  AUC when given together with paclitaxel: increased
  share of irinotecan and its metabolites excreted via the biliary tract: Over 60%
  AUC when given together with carboplatin: lower
[3]; ref Mathijssen et al, 2001
  doses up to which pharmacokinetics is linear: up to 180 mg m^−2
[3]; ref Slatter et al, 2000
  share of the administered irinotecan dose converted to SN-38: less than 10%
